{"source": "patent US10323038B2", "about": "“Pyrazole compounds and methods of making and using same” (ABIDE THERAPEUTICS, INC., priority 2015, dated 2019)", "key": {"FAAH": {"target": "FAAH (Mus musculus (Mouse), UniProt O08914)", "sequence (O08914 whole entry)": "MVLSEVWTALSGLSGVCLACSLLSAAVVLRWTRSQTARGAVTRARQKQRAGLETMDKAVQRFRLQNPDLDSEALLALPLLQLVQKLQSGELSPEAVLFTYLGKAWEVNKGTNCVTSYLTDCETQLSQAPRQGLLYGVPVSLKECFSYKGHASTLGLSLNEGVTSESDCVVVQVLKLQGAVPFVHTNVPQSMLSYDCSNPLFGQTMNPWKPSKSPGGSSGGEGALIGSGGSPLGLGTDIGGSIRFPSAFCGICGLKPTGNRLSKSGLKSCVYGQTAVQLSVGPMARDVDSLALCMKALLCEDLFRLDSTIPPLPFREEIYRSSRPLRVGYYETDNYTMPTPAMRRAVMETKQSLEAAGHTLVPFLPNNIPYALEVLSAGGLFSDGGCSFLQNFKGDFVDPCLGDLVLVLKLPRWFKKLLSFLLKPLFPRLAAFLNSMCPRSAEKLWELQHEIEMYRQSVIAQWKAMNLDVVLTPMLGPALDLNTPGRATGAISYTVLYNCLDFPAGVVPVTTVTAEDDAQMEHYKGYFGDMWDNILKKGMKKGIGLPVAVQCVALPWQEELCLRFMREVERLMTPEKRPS", "assay": "In vitro competitive activity-based protein profiling, FAAH (mouse)", "assay_type": "biochemical", "settings": "for inhibition at 1 µM: read-out: FAAH % inh. 1 μM (mouse)", "method_in_brief": "(§1)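 Mouse brain membrane fraction or cell lysates (mouse assays) and human prefrontal cortex or cell membrane fractions (human assays), 1.0 mg/mL protein, were preincubated with varying inhibitor concentrations for 30 min at 37° C. FP-Rh or HT-01 probe (50 μM stock in DMSO) was then added for another 30 min at 37° C.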"}, "MAGL": {"target": "MAGL (Mus musculus (Mouse), UniProt O35678)", "sequence (O35678 whole entry)": "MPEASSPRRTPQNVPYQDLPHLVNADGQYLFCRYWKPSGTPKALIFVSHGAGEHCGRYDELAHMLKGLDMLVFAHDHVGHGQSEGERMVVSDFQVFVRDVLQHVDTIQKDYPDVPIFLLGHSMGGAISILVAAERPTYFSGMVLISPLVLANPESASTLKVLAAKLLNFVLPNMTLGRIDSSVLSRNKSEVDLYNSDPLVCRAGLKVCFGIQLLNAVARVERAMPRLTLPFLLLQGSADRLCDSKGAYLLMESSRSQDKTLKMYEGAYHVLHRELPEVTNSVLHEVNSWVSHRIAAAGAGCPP", "assay": "In vitro competitive activity-based protein profiling, MAGL (mouse)", "assay_type": "biochemical", "settings": "for inhibition at 1 µM: read-out: MAGL % inh. 1 μM (mouse)", "method_in_brief": "as §1"}}, "data": [{"smiles": "CC(=O)N(C)c1cnn(C(=O)N2CC3CN(Cc4ccc(N5CCCC5)cc4C(F)(F)F)CC3C2)c1", "note": "(stereo not drawn) [Example 93, N-methyl-N-(1-(5-(4-(pyrrolidin-1-yl)-2-(trifluoromethyl)benzyl)octahydropyrrolo[3,4-c]pyrrole-2-carbonyl)-1H-pyrazol-4-yl)acetamide]", "values": [{"measurement": "IC50", "setting": "FAAH", "value": "≤ 100", "unit": "nM"}, {"measurement": "inhibition at 1 µM", "setting": "FAAH", "value": "≥ 75", "unit": "%"}, {"measurement": "IC50", "setting": "MAGL", "value": "≤ 100", "unit": "nM"}, {"measurement": "inhibition at 1 µM", "setting": "MAGL", "value": "≥ 75", "unit": "%"}]}, {"smiles": "CC(=O)N(C)c1cnn(C(=O)N2CC3CN(Cc4ccccc4C)CC3C2)c1", "note": "(stereo not drawn) [Example 94, N-methyl-N-(1-(5-(2-methylbenzyl)octahydropyrrolo[3,4-c]pyrrole-2-carbonyl)-1H-pyrazol-4-yl)acetamide]", "values": [{"measurement": "IC50", "setting": "FAAH", "value": "≤ 100", "unit": "nM"}, {"measurement": "inhibition at 1 µM", "setting": "FAAH", "value": "≥ 75", "unit": "%"}, {"measurement": "IC50", "setting": "MAGL", "value": "100 to 1000", "unit": "nM"}, {"measurement": "inhibition at 1 µM", "setting": "MAGL", "value": "≥ 75", "unit": "%"}]}, {"smiles": "CC(=O)N(C)c1cnn(C(=O)N2CC3CN(Cc4ccc(N5CCOCC5)c(Cl)c4)CC3C2)c1", "note": "(stereo not drawn) [Example 95, N-(1-(5-(3-chloro-4-morpholinobenzyl)octahydropyrrolo[3,4-c]pyrrole-2-carbonyl)-1H-pyrazol-4-yl)-N-methylacetamide]", "values": [{"measurement": "inhibition at 1 µM", "setting": "FAAH", "value": "≥ 75", "unit": "%"}, {"measurement": "inhibition at 1 µM", "setting": "MAGL", "value": "≥ 75", "unit": "%"}]}, {"smiles": "CC(=O)N(C)c1cnn(C(=O)N2CC3CN(Cc4ccccc4C(F)(F)F)CC3C2)c1", "note": "(stereo not drawn) [Example 96, N-methyl-N-(1-(5-(2-(trifluoromethyl)benzyl)octahydropyrrolo[3,4-c]pyrrole-2-carbonyl)-1H-pyrazol-4-yl)acetamide]", "values": [{"measurement": "IC50", "setting": "FAAH", "value": "≤ 100", "unit": "nM"}, {"measurement": "inhibition at 1 µM", "setting": "FAAH", "value": "≥ 75", "unit": "%"}, {"measurement": "IC50", "setting": "MAGL", "value": "≤ 100", "unit": "nM"}, {"measurement": "inhibition at 1 µM", "setting": "MAGL", "value": "≥ 75", "unit": "%"}]}, {"smiles": "CC(=O)N(C)c1cnn(C(=O)N2CC3CN(Cc4ccc(N5CCCC5)c(C(F)(F)F)c4)CC3C2)c1", "note": "(stereo not drawn) [Example 97, N-methyl-N-(1-(5-(4-(pyrrolidin-1-yl)-3-(trifluoromethyl)benzyl)octahydropyrrolo[3,4-c]pyrrole-2-carbonyl)-1H-pyrazol-4-yl)acetamide]", "values": [{"measurement": "inhibition at 1 µM", "setting": "FAAH", "value": "≥ 75", "unit": "%"}, {"measurement": "inhibition at 1 µM", "setting": "MAGL", "value": "≥ 75", "unit": "%"}]}, {"smiles": "CC(=O)N(C)c1cnn(C(=O)N2CC3CN(Cc4ccc(Cl)c(C(F)(F)F)c4)CC3C2)c1", "note": "(stereo not drawn) [Example 98, N-(1-(5-(4-chloro-3-(trifluoromethyl)benzyl)octahydropyrrolo[3,4-c]pyrrole-2-carbonyl)-1H-pyrazol-4-yl)-N-methylacetamide]", "values": [{"measurement": "IC50", "setting": "FAAH", "value": "≤ 100", "unit": "nM"}, {"measurement": "inhibition at 1 µM", "setting": "FAAH", "value": "≥ 75", "unit": "%"}, {"measurement": "IC50", "setting": "MAGL", "value": "≤ 100", "unit": "nM"}, {"measurement": "inhibition at 1 µM", "setting": "MAGL", "value": "≥ 75", "unit": "%"}]}, {"smiles": "CC(=O)N(C)c1cnn(C(=O)N2CC3CN(Cc4ccc(N5CCOCC5)c(C(F)(F)F)c4)CC3C2)c1", "note": "(stereo not drawn) [Example 99, N-methyl-N-(1-(5-(4-morpholino-3-(trifluoromethyl)benzyl)octahydropyrrolo[3,4-c]pyrrole-2-carbonyl)-1H-pyrazol-4-yl)acetamide]", "values": [{"measurement": "inhibition at 1 µM", "setting": "FAAH", "value": "≥ 75", "unit": "%"}, {"measurement": "inhibition at 1 µM", "setting": "MAGL", "value": "≥ 75", "unit": "%"}]}, {"smiles": "CC(=O)N(C)c1cnn(C(=O)N2CC3CN(Cc4ccc(F)c(N5CCCC5)c4)CC3C2)c1", "note": "(stereo not drawn) [Example 100, N-(1-(5-(4-fluoro-3-(pyrrolidin-1-yl)benzyl)octahydropyrrolo[3,4-c]pyrrole-2-carbonyl)-1H-pyrazol-4-yl)-N-methylacetamide]", "values": [{"measurement": "IC50", "setting": "FAAH", "value": "≤ 100", "unit": "nM"}, {"measurement": "inhibition at 1 µM", "setting": "FAAH", "value": "≥ 75", "unit": "%"}, {"measurement": "IC50", "setting": "MAGL", "value": "≤ 100", "unit": "nM"}, {"measurement": "inhibition at 1 µM", "setting": "MAGL", "value": "≥ 75", "unit": "%"}]}, {"smiles": "CC(=O)N(C)c1cnn(C(=O)N2CC3CN(Cc4ccc(N5CC6CCC(C5)O6)cc4C(F)(F)F)CC3C2)c1", "note": "(stereo not drawn) [Example 101, N-(1-(5-(4-(8-oxa-3-azabicyclo[3.2.1]octan-3-yl)-2-(trifluoromethyl)benzyl)octahydropyrrolo[3,4-c]pyrrole-2-carbonyl)-1H-pyrazol-4-yl)-N-methylacetamide]", "values": [{"measurement": "inhibition at 1 µM", "setting": "FAAH", "value": "≥ 75", "unit": "%"}, {"measurement": "inhibition at 1 µM", "setting": "MAGL", "value": "≥ 75", "unit": "%"}]}, {"smiles": "CC(=O)N(C)c1cnn(C(=O)N2CC3CN(Cc4ccc(N5C6CCC5COC6)cc4C(F)(F)F)CC3C2)c1", "note": "(stereo not drawn) [Example 102, N-(1-(5-(4-(3-oxa-8-azabicyclo[3.2.1]octan-8-yl)-2-(trifluoromethyl)benzyl)octahydropyrrolo[3,4-c]pyrrole-2-carbonyl)-1H-pyrazol-4-yl)-N-methylacetamide]", "values": [{"measurement": "inhibition at 1 µM", "setting": "FAAH", "value": "≥ 75", "unit": "%"}, {"measurement": "inhibition at 1 µM", "setting": "MAGL", "value": "≥ 75", "unit": "%"}]}]}
